Tests used:
Assay in all cases: relative viability (nuclei count vs DMSO), 5 days (fraction); higher = more cells survive
[1] = tested on: EPLC-272H
Summary of the method: (§1)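 Values are medians from duplicate plates. Each reflects relative viability, defined as the nuclei count of treated wells over that of vehicle wells. Lung cancer cell lines in 1536-well plates were pin-tool dosed one day after seeding with one drug alone or with a fixed anchor-drug dose plus five library-drug doses (not always all listed) in √10 steps, then fixed, stained and imaged at 4× after 5 days.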

[2] = tested on: H3255
Summary of the method: as §1

[3] = tested on: HARA
Summary of the method: as §1

[4] = tested on: LC-2-ad
Summary of the method: as §1

[5] = tested on: LOU-NH91
Summary of the method: as §1

[6] = tested on: NCI-H1650
Summary of the method: as §1

[7] = tested on: NCI-H1651
Summary of the method: as §1

[8] = tested on: NCI-H1975
Summary of the method: as §1

[9] = tested on: NCI-H2009
Summary of the method: as §1

[10] = tested on: NCI-H2023
Summary of the method: as §1

[11] = tested on: NCI-H2085
Summary of the method: as §1

[12] = tested on: NCI-H2087
Summary of the method: as §1

[13] = tested on: NCI-H2170
Summary of the method: as §1

[14] = tested on: NCI-H2228
Summary of the method: as §1

[15] = tested on: NCI-H23
Summary of the method: as §1

[16] = tested on: NCI-H441
Summary of the method: as §1

[17] = tested on: NCI-H650
Summary of the method: as §1

[18] = tested on: NCI-H727
Summary of the method: as §1

[19] = tested on: NCI-H838
Summary of the method: as §1

[20] = tested on: PC-3 [JPC-3]
Summary of the method: as §1

[21] = tested on: SW 1573
Summary of the method: as §1

[22] = tested on: SW 900
Summary of the method: as §1

[23] = tested on: UMC-11
Summary of the method: as §1

SMILES: Cc1csc(=NC2CCCCC2)n1/N=C/c1ccc(O)c(O)c1O [MIM1] + O=C(CCCCCCC(=O)Nc1ccccc1)NO [Vorinostat] (partner 1 µM)
- relative viability ([1]; first compound 0.2 µM): 0.509
- relative viability ([1]; first compound 0.6325 µM): 0.523
- relative viability ([1]; first compound 2 µM): 0.343
- relative viability ([1]; first compound 6.325 µM): 0.125
- relative viability ([1]; first compound 20 µM): 0.126
- relative viability ([2]; first compound 0.2 µM): 0.776
- relative viability ([2]; first compound 0.6325 µM): 0.901
- relative viability ([2]; first compound 2 µM): 0.759
- relative viability ([2]; first compound 6.325 µM): 0.67
- relative viability ([2]; first compound 20 µM): 0.321
- relative viability ([3]; first compound 0.2 µM): 0.523
- relative viability ([3]; first compound 0.6325 µM): 0.467
- relative viability ([3]; first compound 2 µM): 0.56
- relative viability ([3]; first compound 6.325 µM): 0.511
- relative viability ([3]; first compound 20 µM): 0.0696
- relative viability ([4]; first compound 0.2 µM): 0.698
- relative viability ([4]; first compound 0.6325 µM): 0.306
- relative viability ([4]; first compound 2 µM): 0.777
- relative viability ([4]; first compound 6.325 µM): 0.267
- relative viability ([4]; first compound 20 µM): 0.204
- relative viability ([5]; first compound 0.2 µM): 0.672
- relative viability ([5]; first compound 0.6325 µM): 0.822
- relative viability ([5]; first compound 2 µM): 0.699
- relative viability ([5]; first compound 6.325 µM): 0.359
- relative viability ([5]; first compound 20 µM): 0.298
- relative viability ([6]; first compound 0.2 µM): 0.617
- relative viability ([6]; first compound 0.6325 µM): 0.562
- relative viability ([6]; first compound 2 µM): 0.451
- relative viability ([6]; first compound 6.325 µM): 0.119
- relative viability ([6]; first compound 20 µM): 0.179
- relative viability ([7]; first compound 0.2 µM): 0.509
- relative viability ([7]; first compound 0.6325 µM): 0.408
- relative viability ([7]; first compound 2 µM): 0.519
- relative viability ([7]; first compound 6.325 µM): 0.395
- relative viability ([7]; first compound 20 µM): 0.51
- relative viability ([8]; first compound 0.2 µM): 0.682
- relative viability ([8]; first compound 0.6325 µM): 0.708
- relative viability ([8]; first compound 2 µM): 0.644
- relative viability ([8]; first compound 6.325 µM): 0.239
- relative viability ([8]; first compound 20 µM): 0.204
- relative viability ([9]; first compound 0.2 µM): 0.717
- relative viability ([9]; first compound 0.6325 µM): 0.713
- relative viability ([9]; first compound 2 µM): 0.685
- relative viability ([9]; first compound 6.325 µM): 0.506
- relative viability ([9]; first compound 20 µM): 0.372
- relative viability ([10]; first compound 0.2 µM): 0.55
- relative viability ([10]; first compound 0.6325 µM): 0.58
- relative viability ([10]; first compound 2 µM): 0.391
- relative viability ([10]; first compound 6.325 µM): 0.194
- relative viability ([10]; first compound 20 µM): 0.0736
- relative viability ([11]; first compound 0.2 µM): 0.765
- relative viability ([11]; first compound 0.6325 µM): 0.728
- relative viability ([11]; first compound 2 µM): 0.763
- relative viability ([11]; first compound 6.325 µM): 0.547
- relative viability ([11]; first compound 20 µM): 0.563
- relative viability ([12]; first compound 0.2 µM): 0.68
- relative viability ([12]; first compound 0.6325 µM): 0.536
- relative viability ([12]; first compound 2 µM): 0.877
- relative viability ([12]; first compound 6.325 µM): 0.596
- relative viability ([12]; first compound 20 µM): 0.497
- relative viability ([13]; first compound 0.2 µM): 0.786
- relative viability ([13]; first compound 0.6325 µM): 0.696
- relative viability ([13]; first compound 2 µM): 0.748
- relative viability ([13]; first compound 6.325 µM): 0.479
- relative viability ([13]; first compound 20 µM): 0.138
- relative viability ([14]; first compound 0.2 µM): 0.641
- relative viability ([14]; first compound 0.6325 µM): 0.909
- relative viability ([14]; first compound 2 µM): 0.589
- relative viability ([14]; first compound 6.325 µM): 0.19
- relative viability ([14]; first compound 20 µM): 0.206
- relative viability ([15]; first compound 0.2 µM): 0.55
- relative viability ([15]; first compound 0.6325 µM): 0.277
- relative viability ([15]; first compound 2 µM): 0.478
- relative viability ([15]; first compound 6.325 µM): 0.19
- relative viability ([15]; first compound 20 µM): 0.123
- relative viability ([16]; first compound 0.2 µM): 0.748
- relative viability ([16]; first compound 0.6325 µM): 0.798
- relative viability ([16]; first compound 2 µM): 0.974
- relative viability ([16]; first compound 6.325 µM): 0.212
- relative viability ([16]; first compound 20 µM): 0.191
- relative viability ([17]; first compound 0.2 µM): 0.481
- relative viability ([17]; first compound 0.6325 µM): 0.257
- relative viability ([17]; first compound 2 µM): 0.402
- relative viability ([17]; first compound 6.325 µM): 0.414
- relative viability ([17]; first compound 20 µM): 0.116
- relative viability ([18]; first compound 0.2 µM): 1.29
- relative viability ([18]; first compound 0.6325 µM): 1.16
- relative viability ([18]; first compound 2 µM): 1.15
- relative viability ([18]; first compound 6.325 µM): 1.06
- relative viability ([18]; first compound 20 µM): 0.607
- relative viability ([19]; first compound 0.2 µM): 0.717
- relative viability ([19]; first compound 0.6325 µM): 0.747
- relative viability ([19]; first compound 2 µM): 0.675
- relative viability ([19]; first compound 6.325 µM): 0.413
- relative viability ([19]; first compound 20 µM): 0.197
- relative viability ([20]; first compound 0.2 µM): 0.776
- relative viability ([20]; first compound 0.6325 µM): 0.714
- relative viability ([20]; first compound 2 µM): 0.726
- relative viability ([20]; first compound 6.325 µM): 0.657
- relative viability ([20]; first compound 20 µM): 0.376
- relative viability ([21]; first compound 0.2 µM): 0.806
- relative viability ([21]; first compound 0.6325 µM): 0.668
- relative viability ([21]; first compound 2 µM): 0.773
- relative viability ([21]; first compound 6.325 µM): 0.573
- relative viability ([21]; first compound 20 µM): 0.131
- relative viability ([22]; first compound 0.2 µM): 0.45
- relative viability ([22]; first compound 0.6325 µM): 0.632
- relative viability ([22]; first compound 2 µM): 0.549
- relative viability ([22]; first compound 6.325 µM): 0.175
- relative viability ([22]; first compound 20 µM): 0.187
- relative viability ([23]; first compound 0.2 µM): 0.501
- relative viability ([23]; first compound 0.6325 µM): 0.392
- relative viability ([23]; first compound 2 µM): 0.438
- relative viability ([23]; first compound 6.325 µM): 0.243
- relative viability ([23]; first compound 20 µM): 0.147

Source: the supplement of paper PMC10307832
